In PMC10766854 (Frontiers in Pharmacology, 2023):

What was measured:
[1] = ref US Food and Drug Administration, 2017, cited from earlier work
Experimental: In five double-blind clinical trials of 26 weeks or longer, the incidence of gastrointestinal adverse reactions in patients was reported to be 41% in the liraglutide treatment group and was dose-related ([US Food and Drug Administration, 2017]). This is consistent with the pharmacodynamic profile of GLP-1R agonist-related drugs. […] In five clinical trials of 26 weeks or longer ([US Food and Drug Administration, 2017]), approximately 50%–70% of Victoza-treated patients were tested for anti-liraglutide antibodies at the end of treatment. Approximately 8.6% of the liraglutide-treated group were detected with low-titer (no serum concentration dilution required) anti-liraglutide antibodies. When comparing all antibody-positive and all antibody-negative patients, antibody formation wa ...

[2] = ref US Food and Drug Administration, 2017, cited from earlier work; remark: listed apart in the source
Experimental: The lower dose on the steeper portion of the exposure–effect curve in healthy subjects was chosen to assess the difference between the subject drug and the reference drug ([CDER, 2014]), and therefore, 0.6 mg was selected as the dose to be administered in this comparative trial.

[3] = Stability of analyte solutions and prepared samples, LC-MS/MS method validation; assay type: physicochemical; details: room temperature
Experimental: Plasma concentrations of liraglutide were analyzed using a validated, sensitive, and specific liquid chromatography–tandem mass spectrometry (LC-MS/MS) method developed by Shanghai WuXi AppTec New Drug Development Co. (Shanghai, China). Waters ACQUITY UPLC (Waters Corporation, United States) and AB Triple Quad 6500+ Mass Spectrometer (SCIEX Technologies, United States) combined with an electrospray ionization source were used for LC-MS/MS analysis. The internal standard of liraglutide was developed in-house. The chromatographic separation was performed on a C18 column (Waters) at 60°C with a flow rate of 600 μL/min. […] The linear range, limit of quantification, accuracy, precision, recovery, selectivity, and stability of the method were verified. The linear range of the analytical method for the determination of liraglutide in plasma was 1.00–250 ng/mL, and the lower limit of quantification (LLOQ) was 1.00 ng/mL. […] The analyte recoveries were determined using three gradients, high, medium, and low, with mean values of 48.0%, 47.6%, and 57.8%, respectively, corresponding to CVs of less than 8% and 57.3 for IS, corresponding to a CV of 5.1%. […] During analysis, plasma concentrations of liraglutide below the limit of quantification were listed as zero and missing values in PK samples before and after Tmax, respectively. […]

[4] = Pharmacokinetics and bioequivalence after a single subcutaneous injection, plasma liraglutide by LC-MS/MS; assay type: in vivo, human; details: single s.c. 0.6 mg, N = 36
Experimental: This trial was designed as a randomized, open, two-cycle, self-crossover trial. Screening was performed within 28 days prior to dosing, and eligible subjects were admitted to the Phase I Clinical Trial Ward in the afternoon of the first day prior to dosing and fasted for 10 h overnight after dinner. […] A total of 18 subjects received the test formulation in the first cycle, and the other 18 subjects received the reference formulation for administration and were crossover-administered for the second cycle of the study after a 14-day washout period. Drinking water was restricted for 1 h before and 1 h after dosing, water was drunk as needed at all other times, and a standardized nutritious meal was uniformly provided at least 4 h after dosing. The subjects were discharged from the hospital on the third day after dosing. Follow-up examinations were performed 72 h after the last dose of the second cycle.
After collection, the tubes were inverted six times, centrifuged at 4°C, 1,460 g for 10 min, and the plasma was aliquoted and placed it the numbered cryopreservation tube. Plasma samples were stored in a refrigerator at −80°C before analysis.
Waters ACQUITY UPLC (Waters Corporation, United States) and AB Triple Quad 6500+ Mass Spectrometer (SCIEX Technologies, United States) combined with an electrospray ionization source were used for LC-MS/MS analysis. […] The chromatographic separation was performed on a C18 column (Waters) at 60°C with a flow rate of 600 μL/min. The mobile phase A was 0.025% formic acid aqueous solution (v/v), and the mobile phase B was 0.025% formic acid acetonitrile aqueous solution (v/v). The linear range, limit of quantification, accuracy, precision, recovery, selectivity, and stability of the method were verified. […] In the concentration data listings, all missing data are indicated as “-” or NA (not applicable).
The pharmacokinetic parameters, including Tmax, Cmax, AUC0-t, AUC0-∞, t1/2z, AUC_%Extrap, Vz/F, and CLz/F, were calculated using the non-compartmental model of WinNonlin 7.0. Descriptive statistical analysis was performed on PK parameters, and the arithmetic mean, standard deviation, coefficient of variation, maximum, minimum, and geometric mean of each parameter were calculated. If AUC_%Extrap >20%, the subject’s AUC0-∞, t1/2z, Vz/F, and CLz/F were not to be used for descriptive statistical analysis.
Based on the blood concentration data, SAS 9.4 was used for statistical analysis. Cmax, AUC0-t, AUC0-∞, t1/2z, CLz/F, and Vz/F were logarithmically transformed and then analyzed using variance analysis (ANOVA). […] Two one-sided tests were performed for each parameter, and 90% CI of the geometric mean ratio (GMR) of the pharmacokinetic parameters (T/R) was calculated.

[5] = Safety and tolerability assessment (adverse events) in the crossover trial; assay type: in vivo, human; details: single s.c. 0.6 mg
Experimental: Subjects receiving the study drug were included in the safety assessment. The safety assessment included physical examination, vital signs (pre-dose and 1, 3, 12, 24, 48, and 72 h after administration of the study drug in the first and second cycles), laboratory tests, 12-lead electrocardiograms (pre-dose and 3, 24, 48, and 72 h after administration of the study drug in the first and second cycles), and blood glucose monitoring. Laboratory safety assessments were completed at the laboratory of Zhongshan Hospital, Fudan University, including routine blood, blood biochemistry, thyroid function, coagulation function, and urine routine tests. All adverse reactions were coded using MedDRA 21.0 terminology and categorized and analyzed according to SOC/PT.

dipeptidyl dipeptidase-4 = details: endogenous GLP-1, easily degraded by dipeptidyl dipeptidase-4; ref Drucker, 2003; cited from earlier work
Source text: GLP-1 is an endogenous incretin hormone secreted primarily by intestinal L-cells ([Drucker, 2006]; [Baggio and Drucker, 2007]; [Müller et al., 2019]), which is involved in the regulation of glucose homeostasis through GLP-1R, a G-protein-coupled receptor, in a variety of ways, mainly including stimulation of insulin secretion in a glucose-dependent manner, inhibition of glucagon secretion, reduction of appetite, slowing down of gastric emptying ([Drucker and Nauck, 2006]; [Hare et al., 2010]), enhancement of insulin sensitivity ([Fernández-Millán et al., 2016]; [Capuani et al., 2018]; [Jiang e ...

[6] = single dose 0.6 mg subcutaneously
[7] = healthy Chinese subjects, N = 36

CCCCCCCCCCCCCCCC(=O)N[C@@H](CCC(=O)NCCCC[C@H](NC(=O)[C@H](C)NC(=O)[C@H](C)NC(=O)[C@H](CCC(N)=O)NC(=O)CNC(=O)[C@H](CCC(=O)O)NC(=O)[C@H](CC(C)C)NC(=O)[C@H](Cc1ccc(O)cc1)NC(=O)[C@H](CO)NC(=O)[C@H](CO)NC(=O)[C@@H](NC(=O)[C@H](CC(=O)O)NC(=O)[C@H](CO)NC(=O)[C@@H](NC(=O)[C@H](Cc1ccccc1)NC(=O)[C@@H](NC(=O)CNC(=O)[C@H](CCC(=O)O)NC(=O)[C@H](C)NC(=O)[C@@H](N)Cc1cnc[nH]1)[C@@H](C)O)[C@@H](C)O)C(C)C)C(=O)N[C@@H](CCC(=O)O)C(=O)N[C@@H](Cc1ccccc1)C(=O)N[C@H](C(=O)N[C@@H](C)C(=O)N[C@@H](Cc1c[nH]c2ccccc12)C(=O)N[C@@H](CC(C)C)C(=O)N[C@H](C(=O)N[C@@H](CCCNC(=N)N)C(=O)NCC(=O)N[C@@H](CCCNC(=N)N)C(=O)NCC(=O)O)C(C)C)[C@@H](C)CC)C(=O)O [Liraglutide, liraglutide]
Proportion of treated group with low-titer anti-liraglutide antibodies ([1]; five clinical trials of 26 weeks or longer, end of treatment): Approximately 8.6% | Incidence of gastrointestinal adverse reactions ([1]; patients, five double-blind clinical trials of 26 weeks or longer, dose-related): 41% | Mean apparent volume of distribution [2, 6]: approximately 13 L | Mean peak (Cmax) [2, 6]: 35 ng/mL | Time to maximum concentration after dosing [2, 6]: 8 to 12 h | Total exposure (AUC) [2, 6]: 960 ng·h/mL | Mean apparent clearance ([2]; single dose, subcutaneous administration): approximately 1.2 L/h | Short-term stability (ULOQ) of the working solution ([3]; aqueous mixture of formic acid and acetonitrile): 146.9 h | Stability of the biological samples after preparation ([3]; prepared plasma samples): 21.5 h | Vd/F ([4]; human, in vivo, sc, healthy Chinese subjects, plasma LC-MS/MS, non-compartmental, mean ± SD (%CV), read-out: Vz/F (apparent volume of distribution)): 8.34 L | Geometric mean ratio (T/R) of Cmax ([4]; test liraglutide injection versus Victoza, equivalence interval 80.00%–125.00%, 90% CI 99.54–108.10): 103.73% | Geometric mean ratio (T/R) of AUC0-t ([4]; test liraglutide injection versus Victoza, equivalence interval 80.00%–125.00%, 90% CI 99.85–106.26): 103.01% | Geometric mean ratio (T/R) of AUC0-∞ ([4]; test liraglutide injection versus Victoza, equivalence interval 80.00%–125.00%, 90% CI 100.04–106.11): 103.03% | Tolerability (in words) ([5]; healthy Chinese subjects): well tolerated | AEs leading to exit, Instance [5, 7]: 0 | AEs of grade 1 and above, Instance [5, 7]: 0 | Blurred right vision, Instance [5, 7]: 0 | Elevated blood glucose, Instance [5, 7]: 0 | Elevated free thyroxine, Instance [5, 7]: 1 | Elevated hypersensitivity thyroid-stimulating hormone, Instance [5, 7]: 1 | Hyperuricemia, Instance [5, 7]: 1 | Increased alanine aminotransferase, Instance [5, 7]: 0 | Increased urine leukocytes, Instance [5, 7]: 0 | Leukocyte increase, Instance [5, 7]: 1 | Serious AEs, Instance [5, 7]: 0 | AEs leading to exit, Number of cases (n%) ([5]; proportion of subjects, N = 36): 0% | AEs of grade 1 and above, Number of cases (n%) ([5]; proportion of subjects, N = 36): 0% | Blurred right vision, Number of cases (n%) ([5]; proportion of subjects, N = 36): 0% | Elevated blood glucose, Number of cases (n%) ([5]; proportion of subjects, N = 36): 0% | Elevated free thyroxine, Number of cases (n%) ([5]; proportion of subjects, N = 36): 2.78% | Elevated hypersensitivity thyroid-stimulating hormone, Number of cases (n%) ([5]; proportion of subjects, N = 36): 2.78% | Hyperuricemia, Number of cases (n%) ([5]; proportion of subjects, N = 36): 2.78% | Increased alanine aminotransferase, Number of cases (n%) ([5]; proportion of subjects, N = 36): 0% | Increased urine leukocytes, Number of cases (n%) ([5]; proportion of subjects, N = 36): 0% | Leukocyte increase, Number of cases (n%) ([5]; proportion of subjects, N = 36): 2.78% | Serious AEs, Number of cases (n%) ([5]; proportion of subjects, N = 36): 0% | Total AEs, Number of cases (n%) ([5]; proportion of subjects, N = 36): 8.33% | Number of adverse reactions / AEs ([5]; 36 subjects per group): four | Number of possible related adverse reactions (times) ([5]; 36 subjects per group): three | Subjects with adverse reactions (proportion) ([5]; 36 subjects per group): 8.33% | Subjects with adverse reactions / AEs (number of subjects) ([5]; 36 subjects per group): Three | Subjects with possible related adverse reactions (number of subjects) ([5]; 36 subjects per group): two | Subjects with possible related adverse reactions (proportion) ([5]; 36 subjects per group): 5.56%

GLP-1: Endogenous incretin hormone secreted primarily by intestinal L-cells
Effective half-life (dipeptidyl dipeptidase-4): only a few minutes
